Experimental data published in ChEMBL document CHEMBL1201861, “Genomics of Drug Sensitity in Cancer screening data, Wellcome Trust Sanger Institute”.

Key:
Experiment in all cases: cells
HLE = assay type: functional, cell-based, Homo sapiens; conditions: Homo sapiens, HLE;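 also: growth inhibition of human HLE cells, read out by a cell viability assay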
Description: SANGER: Inhibition of human HLE cell growth in a cell viability assay.

GCT = assay type: functional, cell-based, Homo sapiens; conditions: Homo sapiens, GCT;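 also: GCT cell line proliferation inhibition, read out with a cell viability assay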
Description: SANGER: Inhibition of human GCT cell growth in a cell viability assay.

CAL-12T = assay type: functional, cell-based, Homo sapiens; conditions: Homo sapiens, CAL-12T;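 also: growth inhibition of human CAL-12T cells, read out with a cell viability assay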
Description: SANGER: Inhibition of human CAL-12T cell growth in a cell viability assay.

OVCAR-4 = assay type: functional, cell-based, Homo sapiens; conditions: Homo sapiens, OVCAR-4;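 also: growth inhibition of human OVCAR-4 cells, measured with a cell viability assay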
Description: SANGER: Inhibition of human OVCAR-4 cell growth in a cell viability assay.

COLO-320-HSR = assay type: functional, cell-based; conditions: Homo sapiens;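 also: growth inhibition of COLO-320-HSR cells, determined with a cell viability assay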
Description: SANGER: Inhibition of human COLO-320-HSR cell growth in a cell viability assay.

SK-MEL-28 = assay type: functional, cell-based; conditions: Homo sapiens;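 also: growth inhibition of human SK-MEL-28 cells, read out with a cell viability assay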
Description: SANGER: Inhibition of human SK-MEL-28 cell growth in a cell viability assay.

C-33-A = assay type: functional, cell-based, Homo sapiens; conditions: Homo sapiens, C-33-A;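 also: cell viability assay measuring growth inhibition of C-33-A cells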
Description: SANGER: Inhibition of human C-33-A cell growth in a cell viability assay.

MEG-01 = assay type: functional, cell-based; conditions: Homo sapiens;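 also: growth inhibition of MEG-01 cells, read out by a cell viability assay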
Description: SANGER: Inhibition of human MEG-01 cell growth in a cell viability assay.

EW-24 = assay type: functional, cell-based; conditions: Homo sapiens;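 also: human EW-24 cancer cell line, growth inhibition read out via a cell viability assay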
Description: SANGER: Inhibition of human EW-24 cell growth in a cell viability assay.

D-392MG = assay type: functional, cell-based, Homo sapiens; conditions: Homo sapiens, D-392MG
HT = assay type: functional, cell-based; conditions: Homo sapiens
Description: SANGER: Inhibition of human HT cell growth in a cell viability assay.

COR-L105 = assay type: functional, cell-based, Homo sapiens; conditions: Homo sapiens, COR-L105;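 also: cell growth inhibition determined with a viability assay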
Description: SANGER: Inhibition of human COR-L105 cell growth in a cell viability assay.

SW756 = assay type: functional, cell-based, Homo sapiens; conditions: Homo sapiens, SW756;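 also: growth inhibition of human SW756 cells, read out with a cell viability assay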
Description: SANGER: Inhibition of human SW756 cell growth in a cell viability assay.

SHP77 = assay type: functional, cell-based, Homo sapiens, SHP-77; conditions: Homo sapiens, SHP77;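 also: growth inhibition of human SHP-77 cells measured by a cell viability assay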
Description: SANGER: Inhibition of human SHP-77 cell growth in a cell viability assay.

SW 962 = assay type: functional, cell-based, Homo sapiens; conditions: Homo sapiens, SW 962;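 also: growth inhibition of human SW962 cells, read out by a cell viability assay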
Description: SANGER: Inhibition of human SW962 cell growth in a cell viability assay.

KYSE-150 cell line = assay type: functional, cell-based, Homo sapiens; conditions: Homo sapiens, KYSE-150;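 also: growth inhibition of human KYSE-150 cells, read out with a cell viability assay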
Description: SANGER: Inhibition of human KYSE-150 cell growth in a cell viability assay.

SH-4 = assay type: functional, cell-based, Homo sapiens; conditions: Homo sapiens, SH-4;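 also: growth inhibition of SH-4 cells, read out with a cell viability assay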
Description: SANGER: Inhibition of human SH-4 cell growth in a cell viability assay.

SW13 = assay type: functional, cell-based, Homo sapiens; conditions: Homo sapiens, SW13;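 also: IC50 is inhibition of SW13 cell growth, read out with a cell viability assay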
Description: SANGER: Inhibition of human SW13 cell growth in a cell viability assay.

KLE = assay type: functional, cell-based, Homo sapiens; conditions: Homo sapiens, KLE;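 also: growth inhibition of human KLE cells, read out with a cell viability assay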
Description: SANGER: Inhibition of human KLE cell growth in a cell viability assay.

ABC-1 = assay type: functional, cell-based, Homo sapiens; conditions: Homo sapiens, ABC-1;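 also: growth inhibition of human ABC-1 cells, read out by a cell viability assay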
Description: SANGER: Inhibition of human ABC-1 cell growth in a cell viability assay.

SW626 = assay type: functional, cell-based, Homo sapiens; conditions: Homo sapiens, SW626;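 also: growth inhibition of SW626 cells, measured with a cell viability assay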
Description: SANGER: Inhibition of human SW626 cell growth in a cell viability assay.

SW-620 = assay type: functional, cell-based, Homo sapiens; conditions: Homo sapiens, SW-620;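 also: growth inhibition of human SW-620 cells, measured by a cell viability assay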
Description: SANGER: Inhibition of human SW620 cell growth in a cell viability assay.

TE-12 = assay type: functional, cell-based; conditions: Homo sapiens;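 also: growth inhibition of TE-12 cells, read out by a cell viability assay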
Description: SANGER: Inhibition of human TE-12 cell growth in a cell viability assay.

J-RT3-T3-5 = assay type: functional, cell-based; conditions: Homo sapiens;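 also: cell viability assay measuring growth inhibition of human J-RT3-T3-5 cells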
Description: SANGER: Inhibition of human J-RT3-T3-5 cell growth in a cell viability assay.

ES7 = assay type: functional, cell-based, Homo sapiens; conditions: Homo sapiens, ES7;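 also: growth inhibition of cultured human ES7 cells, read out as cell viability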
Description: SANGER: Inhibition of human ES7 cell growth in a cell viability assay.

NCI-H2228 = assay type: functional, cell-based, Homo sapiens; conditions: Homo sapiens, NCI-H2228;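 also: growth inhibition of human NCI-H2228 cells, read out by a cell viability assay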
Description: SANGER: Inhibition of human NCI-H2228 cell growth in a cell viability assay.

GR-ST = assay type: functional, cell-based; conditions: Homo sapiens
Description: SANGER: Inhibition of human GR-ST cell growth in a cell viability assay.

A-431 = assay type: functional, cell-based, Homo sapiens; conditions: Homo sapiens, A-431;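 also: growth inhibition of A-431 cells, determined with a cell viability read-out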
Description: SANGER: Inhibition of human A431 cell growth in a cell viability assay.

EKVX = assay type: functional, cell-based, Homo sapiens; conditions: Homo sapiens, EKVX;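 also: growth inhibition of human EKVX cells, read out with a cell viability assay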
Description: SANGER: Inhibition of human EKVX cell growth in a cell viability assay.

DU-4475 = assay type: functional, cell-based; conditions: Homo sapiens
Description: SANGER: Inhibition of human DU-4475 cell growth in a cell viability assay.

HPAF-II = assay type: functional, cell-based, Homo sapiens; conditions: Homo sapiens, HPAF-II;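 also: growth inhibition of HPAF-II cells, read out with a cell viability assay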
Description: SANGER: Inhibition of human HPAF-II cell growth in a cell viability assay.

MKN-28 = assay type: functional, cell-based, Homo sapiens; conditions: Homo sapiens, MKN-28;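 also: cell viability assay read-out, IC50 reflects suppression of growth of human MKN-28 cells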
Description: SANGER: Inhibition of human MKN28 cell growth in a cell viability assay.

RS4-11 = assay type: functional, cell-based; conditions: Homo sapiens;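 also: growth inhibition of RS4-11 cells, read out by a cell viability assay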
Description: SANGER: Inhibition of human RS4-11 cell growth in a cell viability assay.

KARPAS-45 = assay type: functional, cell-based; conditions: Homo sapiens;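 also: inhibition of cell line growth, read out through a viability assay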
Description: SANGER: Inhibition of human KARPAS-45 cell growth in a cell viability assay.

NCI-H1792 = assay type: functional, cell-based, Homo sapiens; conditions: Homo sapiens, NCI-H1792;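 also: growth inhibition of human NCI-H1792 cells, read out as cell viability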
Description: SANGER: Inhibition of human NCI-H1792 cell growth in a cell viability assay.

AGS = assay type: functional, cell-based, Homo sapiens; conditions: Homo sapiens, AGS;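 also: growth inhibition of AGS cells, determined with a cell viability assay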
Description: SANGER: Inhibition of human AGS cell growth in a cell viability assay.

SCH = assay type: functional, cell-based, Homo sapiens; conditions: Homo sapiens, SCH;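 also: growth inhibition of human SCH cells, read out in a cell viability assay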
Description: SANGER: Inhibition of human SCH cell growth in a cell viability assay.

RPMI-2650 = assay type: functional, cell-based, Homo sapiens; conditions: Homo sapiens, RPMI-2650
Description: SANGER: Inhibition of human RPMI-2650 cell growth in a cell viability assay.

SJSA-1 = assay type: functional, cell-based, Homo sapiens; conditions: Homo sapiens, SJSA-1;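 also: growth inhibition of human SJSA-1 cells, read out through a cell viability measurement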
Description: SANGER: Inhibition of human SJSA-1 cell growth in a cell viability assay.

KYSE-520 cell line = assay type: functional, cell-based, Homo sapiens; conditions: Homo sapiens, KYSE-520;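 also: growth inhibition of human KYSE-520 cells, read out with a viability assay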
Description: SANGER: Inhibition of human KYSE-520 cell growth in a cell viability assay.

MZ2-MEL = assay type: functional, cell-based, Homo sapiens; conditions: Homo sapiens, MZ2-MEL;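 also: growth inhibition of MZ2-MEL cells read out with a cell viability assay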
Description: SANGER: Inhibition of human MZ2-MEL cell growth in a cell viability assay.

SK-UT-1 = assay type: functional, cell-based, Homo sapiens; conditions: Homo sapiens, SK-UT-1;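 also: growth inhibition of SK-UT-1 cells, measured by a cell viability assay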
Description: SANGER: Inhibition of human SK-UT-1 cell growth in a cell viability assay.

MZ1-PC = assay type: functional, cell-based, Homo sapiens; conditions: Homo sapiens, MZ1-PC;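 also: cell viability assay measuring growth inhibition of human MZ1-PC cells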
Description: SANGER: Inhibition of human MZ1-PC cell growth in a cell viability assay.

Huh-7 = assay type: functional, cell-based, Homo sapiens; conditions: Homo sapiens, Huh-7;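 also: HuH-7 cell growth inhibition, read out with a cell viability assay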
Description: SANGER: Inhibition of human HuH-7 cell growth in a cell viability assay.

SF-126 = assay type: functional, cell-based, Homo sapiens; conditions: Homo sapiens, SF-126;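 also: growth inhibition of human SF126 cells, read out with a cell viability assay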
Description: SANGER: Inhibition of human SF126 cell growth in a cell viability assay.

LC-2-ad = assay type: functional, cell-based, Homo sapiens; conditions: Homo sapiens, LC-2-ad;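 also: growth inhibition of human LC-2-ad cells, read out with a cell viability assay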
Description: SANGER: Inhibition of human LC-2-ad cell growth in a cell viability assay.

NCI-H1581 = assay type: functional, cell-based, Homo sapiens; conditions: Homo sapiens, NCI-H1581;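 also: cell growth inhibition read out by a viability assay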
Description: SANGER: Inhibition of human NCI-H1581 cell growth in a cell viability assay.

RCM-1 = assay type: functional, cell-based, Homo sapiens; conditions: Homo sapiens, RCM-1;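 also: growth inhibition of the RCM-1 line, determined with a cell viability readout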
Description: SANGER: Inhibition of human RCM-1 cell growth in a cell viability assay.

KNS-42 = assay type: functional, cell-based, Homo sapiens; conditions: Homo sapiens, KNS-42;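 also: growth inhibition of KNS-42 cells, read out with a cell viability assay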
Description: SANGER: Inhibition of human KNS-42 cell growth in a cell viability assay.

LU-139 = assay type: functional, cell-based; conditions: Homo sapiens
Description: SANGER: Inhibition of human LU-139 cell growth in a cell viability assay.

ATN-1 = assay type: functional, cell-based; conditions: Homo sapiens;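 also: growth inhibition of human ATN-1 cells, read out with a cell viability assay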
Description: SANGER: Inhibition of human ATN-1 cell growth in a cell viability assay.

EW-13 = assay type: functional, cell-based; conditions: Homo sapiens;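 also: growth inhibition of EW-13 cells, read out with a cell viability assay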
Description: SANGER: Inhibition of human EW-13 cell growth in a cell viability assay.

Which IC50 (HLE) does the source give for `CC(=O)O[C@@]12CO[C@@H]1C[C@H](O)[C@@]1(C)C(=O)[C@H](O)C3=C(C)[C@@H](OC(=O)[C@H](O)[C@@H](NC(=O)OC(C)(C)C)c4ccccc4)C[C@@](O)([C@@H](OC(=O)c4ccccc4)[C@H]21)C3(C)C` [DOCETAXEL] here?
Its IC50 is 4.05 nM.

What about the IC50 (GCT) of the same compound?
Its IC50 is 1.8 nM.

What about the IC50 (CAL-12T) of the same compound?
The IC50 was 3.76 nM.

What about the IC50 (OVCAR-4) of the same compound?
The IC50 was 5.86 nM.

What about the IC50 (COLO-320-HSR) of the same compound?
Its IC50 is greater than 10 nM.

What about the IC50 (SK-MEL-28) of the same compound?
The IC50 was 2.03 nM.

What about the IC50 (C-33-A) of the same compound?
The IC50 was 2.66 nM.

What about the IC50 (MEG-01) of the same compound?
Its IC50 is greater than 10 nM.

And the IC50 (EW-24)?
Its IC50 is 4.33 nM.

What about the IC50 (D-392MG) of the same compound?
Its IC50 is greater than 10 nM.

And the IC50 (HT)?
Its IC50 is greater than 10 nM.

And the IC50 (COR-L105)?
The IC50 was greater than 10 nM.

What about the IC50 (SW756) of the same compound?
The IC50 was 2.16 nM.

What about the IC50 (SHP77) of the same compound?
Its IC50 is greater than 10 nM.

What about the IC50 (SW 962) of the same compound?
The IC50 was 2.93 nM.

What about the IC50 (KYSE-150 cell line) of the same compound?
Its IC50 is 4.99 nM.

What about the IC50 (SH-4) of the same compound?
Its IC50 is 3.22 nM.

What about the IC50 (SW13) of the same compound?
The IC50 was 1.69 nM.

What about the IC50 (KLE) of the same compound?
Its IC50 is greater than 10 nM.

And the IC50 (ABC-1)?
The IC50 was greater than 10 nM.

And the IC50 (SW626)?
The IC50 was 6.24 nM.

And the IC50 (SW-620)?
Its IC50 is 3.97 nM.

What about the IC50 (TE-12) of the same compound?
Its IC50 is greater than 10 nM.

And the IC50 (J-RT3-T3-5)?
Its IC50 is 2.35 nM.

What about the IC50 (ES7) of the same compound?
Its IC50 is 0.389 nM.

And the IC50 (NCI-H2228)?
The IC50 was 7.25 nM.

And the IC50 (GR-ST)?
The IC50 was greater than 10 nM.

What about the IC50 (A-431) of the same compound?
Its IC50 is greater than 10 nM.

And the IC50 (EKVX)?
The IC50 was greater than 10 nM.

And the IC50 (DU-4475)?
Its IC50 is 3.02 nM.

What about the IC50 (HPAF-II) of the same compound?
Its IC50 is 9.26 nM.

What about the IC50 (MKN-28) of the same compound?
The IC50 was 3.17 nM.

What about the IC50 (RS4-11) of the same compound?
The IC50 was greater than 10 nM.

What about the IC50 (KARPAS-45) of the same compound?
Its IC50 is 6.52 nM.

And the IC50 (NCI-H1792)?
The IC50 was 1.04 nM.

What about the IC50 (AGS) of the same compound?
Its IC50 is 3.28 nM.

And the IC50 (SCH)?
Its IC50 is 8.18 nM.

And the IC50 (RPMI-2650)?
Its IC50 is 2.46 nM.

And the IC50 (SJSA-1)?
Its IC50 is 0.615 nM.

And the IC50 (KYSE-520 cell line)?
The IC50 was 7 nM.

And the IC50 (MZ2-MEL)?
The IC50 was 6.58 nM.

And the IC50 (SK-UT-1)?
The IC50 was 2.26 nM.

And the IC50 (MZ1-PC)?
Its IC50 is 1.18 nM.

What about the IC50 (Huh-7) of the same compound?
Its IC50 is greater than 10 nM.

And the IC50 (SF-126)?
Its IC50 is 3.29 nM.

And the IC50 (LC-2-ad)?
Its IC50 is 3.4 nM.

What about the IC50 (NCI-H1581) of the same compound?
Its IC50 is 2.17 nM.

And the IC50 (RCM-1)?
The IC50 was greater than 10 nM.

And the IC50 (KNS-42)?
Its IC50 is 4.12 nM.

What about the IC50 (LU-139) of the same compound?
The IC50 was greater than 10 nM.

And the IC50 (ATN-1)?
Its IC50 is greater than 10 nM.

And the IC50 (EW-13)?
The IC50 was greater than 10 nM.

For `C[C@]1(O)C[C@@H](c2nc(-c3ccc4ccc(-c5ccccc5)nc4c3)c3c(N)nccn32)C1` [LINSITINIB], which IC50 (HLE) is on record?
The IC50 was greater than 2560 nM.

And the IC50 (GCT)?
The IC50 was greater than 2560 nM.

What about the IC50 (CAL-12T) of the same compound?
Its IC50 is greater than 2560 nM.

And the IC50 (OVCAR-4)?
Its IC50 is greater than 2560 nM.

What about the IC50 (COLO-320-HSR) of the same compound?
The IC50 was 414 nM.

And the IC50 (SK-MEL-28)?
The IC50 was greater than 2560 nM.

And the IC50 (C-33-A)?
Its IC50 is greater than 2560 nM.

What about the IC50 (MEG-01) of the same compound?
The IC50 was greater than 2560 nM.

What about the IC50 (EW-24) of the same compound?
The IC50 was greater than 2560 nM.

And the IC50 (D-392MG)?
Its IC50 is greater than 2560 nM.

What about the IC50 (HT) of the same compound?
Its IC50 is greater than 2560 nM.

What about the IC50 (COR-L105) of the same compound?
The IC50 was greater than 2560 nM.

And the IC50 (SW756)?
The IC50 was greater than 2560 nM.

What about the IC50 (SHP77) of the same compound?
Its IC50 is greater than 2560 nM.

And the IC50 (SW 962)?
The IC50 was greater than 2560 nM.

What about the IC50 (KYSE-150 cell line) of the same compound?
Its IC50 is greater than 2560 nM.

What about the IC50 (SH-4) of the same compound?
Its IC50 is greater than 2560 nM.

What about the IC50 (SW13) of the same compound?
The IC50 was greater than 2560 nM.

And the IC50 (KLE)?
The IC50 was greater than 2560 nM.

And the IC50 (ABC-1)?
The IC50 was 904 nM.

What about the IC50 (SW626) of the same compound?
Its IC50 is greater than 2560 nM.

And the IC50 (SW-620)?
The IC50 was greater than 2560 nM.

And the IC50 (TE-12)?
Its IC50 is 765 nM.

And the IC50 (J-RT3-T3-5)?
The IC50 was greater than 2560 nM.

What about the IC50 (ES7) of the same compound?
The IC50 was greater than 2560 nM.

And the IC50 (NCI-H2228)?
Its IC50 is greater than 2560 nM.

And the IC50 (GR-ST)?
Its IC50 is greater than 2560 nM.

What about the IC50 (A-431) of the same compound?
Its IC50 is greater than 2560 nM.

What about the IC50 (EKVX) of the same compound?
Its IC50 is 1350 nM.

What about the IC50 (DU-4475) of the same compound?
Its IC50 is greater than 2560 nM.

What about the IC50 (HPAF-II) of the same compound?
Its IC50 is greater than 2560 nM.

And the IC50 (MKN-28)?
Its IC50 is greater than 2560 nM.

And the IC50 (RS4-11)?
The IC50 was 338 nM.

What about the IC50 (KARPAS-45) of the same compound?
The IC50 was greater than 2560 nM.

What about the IC50 (NCI-H1792) of the same compound?
Its IC50 is greater than 2560 nM.

What about the IC50 (AGS) of the same compound?
The IC50 was greater than 2560 nM.

And the IC50 (SCH)?
The IC50 was greater than 2560 nM.

What about the IC50 (RPMI-2650) of the same compound?
Its IC50 is greater than 2560 nM.

And the IC50 (SJSA-1)?
The IC50 was 1040 nM.

And the IC50 (KYSE-520 cell line)?
The IC50 was greater than 2560 nM.

What about the IC50 (MZ2-MEL) of the same compound?
Its IC50 is greater than 2560 nM.

What about the IC50 (SK-UT-1) of the same compound?
The IC50 was greater than 2560 nM.

And the IC50 (MZ1-PC)?
Its IC50 is greater than 2560 nM.

What about the IC50 (Huh-7) of the same compound?
Its IC50 is 1600 nM.

And the IC50 (SF-126)?
The IC50 was greater than 2560 nM.

What about the IC50 (LC-2-ad) of the same compound?
Its IC50 is 1740 nM.

What about the IC50 (NCI-H1581) of the same compound?
The IC50 was greater than 2560 nM.

What about the IC50 (RCM-1) of the same compound?
The IC50 was greater than 2560 nM.

And the IC50 (KNS-42)?
The IC50 was greater than 2560 nM.

And the IC50 (LU-139)?
The IC50 was greater than 2560 nM.

And the IC50 (ATN-1)?
The IC50 was greater than 2560 nM.

What about the IC50 (EW-13) of the same compound?
The IC50 was greater than 2560 nM.
